Where two headings read alike, the source gives them in different places.
Legend:
Assay type in all cases: cell-based
[1] = system: human diploid fibroblasts (HDF-3); assay: G1-S progression assay (BrdU incorporation); conditions: read-out: G1/S Chkpt (IC50)
Method: This assay is designed to determine the ability of compounds to inhibit progression of cells from G1 into S-phase. […] The protocol is as follows: • (1) Grow human diploid fibroblasts (HDF-3) in 100 mm tissue culture dish to confluency. (2) Plate 6–7×10^3 cells/well in a 96 well plate in 100 μl of DMEM. […] Dilute compound in DMEM containing DMSO and add 100 μl to each well so that the DMSO conc. is 0.6–0.8% in 200 μl final volume. (4) Two h after addition of compound, add 20 μl of 100 μM Br dU (final conc. 10 μM) Make 100 μM solution in DMEM from 10 mM stock solution. (5) After 4 h, add 200 μl PBS to each well and remove the contents of the wells by inverting the plate and soaking on to the paper towel. Repeat the washing step three times, with 400 ul PBS each time. (6) Fix the cells and denature the DNA by adding 200 μl fixation/denaturation solution to each well for 30–40 min. (7) Remove the fixation/denaturation solution by tapping the plate on the paper towel and add 75 μl of anti BrdU peroxidase antibody to each well. (dilute the antibody to 0.1 U/mL from 15 U/mL stock in PBS containing 1% BSA, Fraction V). Incubate the plate O/N at 4° C. (8) Remove the antibody solution and wash wells four times with 400 μl of PBS. Let the wash solution stay for 3–4 min during each wash. (9) Drain the wells and add 100 μl of chemiluminiscence Elisa reagent (Prepare the reagent 15–20 min before use to bring it to rt by mixing 100 parts of reagent A with 1 part of reagent B). (10) Read the plate in a luminometer. Take 2–3 readings within 6–7 min. Perform the following controls: [table] Deoxybromouridine (BrdU), anti BrdU peroxidase antibodies, fixation/denaturation solution, chemiluminiscence reagent and BSA Fraction V, were obtained from Boehringer Mannheim. The 96-well white plate with clear bottom were purchased from Corning Costar Corporation. Dulbecco's Modified Eagle Medium containing high glucose, L-glutamine and pyridoxine HCl was obtained from GIBCO BRL.

[2] = system: HDF normal diploid fibroblast cells; assay: MTT assay, HDF; conditions: 72 h
Method: Compounds are tested for their ability to inhibit cell proliferation and cell viability. The metabolic conversion of 3-(4,5-dimethylthiazol-2-yl)-2,5-diphenyltetrazolium bromide (MTT, Sigma #M2128) to a reduced form is a commonly used measure of cellular viability. Following is the procedure: Cells are maintained in 75 cm^2 tissue culture flasks until ready for use. The cells are grown and plated for the assay in Dulbecco's modified Eagle's media (DMEM) containing 10% fetal bovine serum. For example, the following cell lines can be used: a) human foreskin fibroblasts (HFF); b) HT29 (human colon carcinoma cell line); c) MDA-MB468 (human breast carcinoma cell line); d) RKO (human colon adenocarcinoma cell line); e) SW620 (human colon carcinoma cell line); f A549 (human lung carcinoma cell line); and g) MIA PACA (human pancreatic carcinoma cell line). Cells are maintained at 37° C. in 10% CO2, 90% humidified air. Cells are plated in 96-well tissue culture plates at the densities listed below. 100 μL of cell suspension is added to each well of the 96-well plate except the top row of the plate which contains no cells and serves as a reference for the spectrophotometer. [table] Cells are incubated overnight in DMEM containing 10% fetal bovine serum at 37° C. in 10% CO2, 90% humidified air prior to dosing. […] Compounds with solubilities of less than 30 μM are dosed at the highest soluble concentration. Stock solutions of compounds are made in 100% dimethyl sulfoxide (DMSO). Stock solutions are diluted in DMEM containing 100 μg/ml gentamicin and 0.3 to 0.6% DMSO at the twice the highest concentration to be placed on the cells. If compounds have been dissolved in DMSO the final concentration of DMSO on the cells is kept below 0.3%. Three-fold serial dilutions are performed on each compound to prepare 10 concentrations of the compound for dosing. 100 μl of diluted compound is added to the 100 μl of media currently on the dish. For each concentration of compound, 2–4 replicate wells are prepared. Cells are returned to incubator and allowed to proliferate in the presence of compound for 72 h before addition of MTT. […] After 4 h incubation the media, compound and MTT mixture is aspirated from the plates and 100 μl of 100% DMSO is added to each well in addition to 25 μl of Sorenson's Buffer (0.1M glycine, 0.1M NaCl, pH 10.5). Quantitation of metabolic reduction of MTT in each plate is performed by reading optical density at 570 nm wavelength on a Molecular Devices UVmax microplate reader. […] HDF are normal diploid fibroblast cells. RKO are colon adenocarcinoma cells and MES/SA are ovarian carcinoma cells.

[3] = system: RKO (human colon adenocarcinoma cell line); assay: MTT assay, RKO; conditions: 72 h
Method: Compounds are tested for their ability to inhibit cell proliferation and cell viability. The metabolic conversion of 3-(4,5-dimethylthiazol-2-yl)-2,5-diphenyltetrazolium bromide (MTT, Sigma #M2128) to a reduced form is a commonly used measure of cellular viability. Following is the procedure: Cells are maintained in 75 cm^2 tissue culture flasks until ready for use. The cells are grown and plated for the assay in Dulbecco's modified Eagle's media (DMEM) containing 10% fetal bovine serum. For example, the following cell lines can be used: a) human foreskin fibroblasts (HFF); b) HT29 (human colon carcinoma cell line); c) MDA-MB468 (human breast carcinoma cell line); d) RKO (human colon adenocarcinoma cell line); e) SW620 (human colon carcinoma cell line); f A549 (human lung carcinoma cell line); and g) MIA PACA (human pancreatic carcinoma cell line). Cells are maintained at 37° C. in 10% CO2, 90% humidified air. Cells are plated in 96-well tissue culture plates at the densities listed below. 100 μL of cell suspension is added to each well of the 96-well plate except the top row of the plate which contains no cells and serves as a reference for the spectrophotometer. [table] Cells are incubated overnight in DMEM containing 10% fetal bovine serum at 37° C. in 10% CO2, 90% humidified air prior to dosing. […] Compounds with solubilities of less than 30 μM are dosed at the highest soluble concentration. Stock solutions of compounds are made in 100% dimethyl sulfoxide (DMSO). Stock solutions are diluted in DMEM containing 100 μg/ml gentamicin and 0.3 to 0.6% DMSO at the twice the highest concentration to be placed on the cells. If compounds have been dissolved in DMSO the final concentration of DMSO on the cells is kept below 0.3%. Three-fold serial dilutions are performed on each compound to prepare 10 concentrations of the compound for dosing. 100 μl of diluted compound is added to the 100 μl of media currently on the dish. […] Quantitation of metabolic reduction of MTT in each plate is performed by reading optical density at 570 nm wavelength on a Molecular Devices UVmax microplate reader. […]

SMILES | IC50 ([1]; Homo sapiens, Fibroblast) | IC50 ([2]; Fibroblast) | IC50 ([3]; Homo sapiens) | IC50 [1] | IC50 [2] | IC50 [3]
NS(=O)(=O)c1ccc(NN=C2C(=O)Nc3ccc(-c4cnco4)cc32)cc1 [Example 36] | 600 to 1000 nM | 1100 to 5000 nM | 600 to 1000 nM | – | – | –
O=C1Nc2ccc3ncsc3c2C1=CNc1ccc(S(=O)(=O)NCc2ccncc2)cc1 [Example 104, 4-[(7-Oxo-6,7-dihydro-1-thia-3,6-diaza-as-indacen-8-ylidenemethyl)amino]-N-pyridinyl-4-yl-methyl benzenesulfonamide] | – | – | – | 1100 to 5000 nM | 1100 to 5000 nM | 1100 to 5000 nM
COC(=O)c1ccc2c(c1)/C(=C/Nc1ccc(S(N)(=O)=O)cc1)C(=O)N2 [Example 27] | 1100 to 5000 nM | 1100 to 5000 nM | 1100 to 5000 nM | – | – | –

From patent publication US7105529B2, “Substituted oxindole derivatives as protein tyrosine and as protein serine/threonine kinase inhibitors and compositions and methods of treating chemotherapy and radiation therapy side effects” (SmithKline Beecham Corporation, priority 1997, dated 2006)
